From ChEMBL document CHEMBL1201862, “PubChem BioAssay data set” (2004)
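Cells were grown in 96-well plates and exposed to each compound for 48 hours at five concentrations; endpoints were interpolated linearly between bracketing concentrations, or set to the highest concentration if not reached. The concentration for 50% growth inhibition is given as GI50.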 Active and inactive are the calls of the source. Rule as the data show it: active = GI50 up to about 1.1 µM and inactive = higher.

Tests used:
Experiment in all cases: NCI tumour cell line growth inhibition, 48 h
786-0 = system: 786-0
A498 = system: A498
A549 = system: A549
ACHN = system: ACHN
BT-549 = system: BT-549
CAKI-1 = system: CAKI-1
CCRF-CEM = system: CCRF-CEM
COLO 205 = system: COLO 205
DU-145 = system: DU-145
EKVX = system: EKVX
HCC 2998 = system: HCC 2998
HCT-116 = system: HCT-116
HCT-15 = system: HCT-15
HL-60 = system: HL-60
HOP-62 = system: HOP-62
HOP-92 = system: HOP-92
HT-29 = system: HT-29
Hs-578T = system: Hs-578T
IGROV-1 = system: IGROV-1
K562 = system: K562
KM12 = system: KM12
LOX IMVI = system: LOX IMVI
M14 = system: M14
MCF7 = system: MCF7
MDA-MB-231 = system: MDA-MB-231
MDA-MB-435 = system: MDA-MB-435
MDA-N = system: MDA-N
MOLT-4 = system: MOLT-4
Malme-3M = system: Malme-3M
NCI-H23 = system: NCI-H23
NCI-H460 = system: NCI-H460
NCI-H522 = system: NCI-H522
NCI/ADR-RES = system: NCI/ADR-RES
OVCAR-3 = system: OVCAR-3
OVCAR-4 = system: OVCAR-4
OVCAR-5 = system: OVCAR-5
OVCAR-8 = system: OVCAR-8
PC-3 = system: PC-3
RPMI-8226 = system: RPMI-8226
RXF 393 = system: RXF 393
SF-268 = system: SF-268
SF-295 = system: SF-295
SF-539 = system: SF-539
SK-MEL-28 = system: SK-MEL-28
SK-MEL-2 = system: SK-MEL-2
SK-MEL-5 = system: SK-MEL-5
SK-OV-3 = system: SK-OV-3
SN12C = system: SN12C
SNB-19 = system: SNB-19
SW-620 = system: SW-620
T47D = system: T47D
TK-10 = system: TK-10
U-251 = system: U-251
UACC-257 = system: UACC-257
UACC-62 = system: UACC-62
NCI-H226 = system: NCI-H226
UO-31 = system: UO-31

CC(C)(C)c1ccc2c(c1)C#Cc1cc3c(cc1OCCCO2)C#Cc1cc(C(C)(C)C)ccc1OCCCO3
GI50 (786-0): > 100 µM (inactive) | GI50 (A498): > 100 µM (inactive) | GI50 (A549): > 100 µM (inactive) | GI50 (ACHN): > 100 µM (inactive) | GI50 (BT-549): 1.72 µM (inactive) | GI50 (CAKI-1): > 100 µM (inactive) | GI50 (CCRF-CEM): 42.4 µM (inactive) | GI50 (COLO 205): > 100 µM (inactive) | GI50 (DU-145): > 100 µM (inactive) | GI50 (EKVX): > 100 µM (inactive) | GI50 (HCC 2998): > 100 µM (inactive) | GI50 (HCT-116): > 100 µM (inactive) | GI50 (HCT-15): 2.45 µM | GI50 (HL-60): > 100 µM (inactive) | GI50 (HOP-62): > 100 µM (inactive) | GI50 (HOP-92): > 100 µM (inactive) | GI50 (HT-29): > 100 µM (inactive) | GI50 (Hs-578T): > 100 µM (inactive) | GI50 (IGROV-1): > 100 µM (inactive) | GI50 (K562): > 100 µM (inactive) | GI50 (KM12): > 100 µM (inactive) | GI50 (LOX IMVI): > 100 µM (inactive) | GI50 (M14): > 100 µM (inactive) | GI50 (MCF7): > 100 µM (inactive) | GI50 (MDA-MB-231): > 100 µM (inactive) | GI50 (MDA-MB-435): > 100 µM (inactive) | GI50 (MDA-N): > 100 µM (inactive) | GI50 (MOLT-4): > 100 µM (inactive) | GI50 (Malme-3M): > 100 µM (inactive) | GI50 (NCI-H23): 2.2 µM (inactive) | GI50 (NCI-H460): > 100 µM (inactive) | GI50 (NCI-H522): > 100 µM (inactive) | GI50 (NCI/ADR-RES): 10.6 µM (inactive) | GI50 (OVCAR-3): > 100 µM (inactive) | GI50 (OVCAR-4): > 100 µM (inactive) | GI50 (OVCAR-5): > 100 µM (inactive) | GI50 (OVCAR-8): > 100 µM (inactive) | GI50 (PC-3): > 100 µM (inactive) | GI50 (RPMI-8226): > 100 µM (inactive) | GI50 (RXF 393): > 100 µM (inactive) | GI50 (SF-268): > 100 µM (inactive) | GI50 (SF-295): > 100 µM (inactive) | GI50 (SF-539): > 100 µM (inactive) | GI50 (SK-MEL-28): > 100 µM (inactive) | GI50 (SK-MEL-2): > 100 µM (inactive) | GI50 (SK-MEL-5): > 100 µM (inactive) | GI50 (SK-OV-3): > 100 µM (inactive) | GI50 (SN12C): > 100 µM (inactive) | GI50 (SNB-19): > 100 µM (inactive) | GI50 (SW-620): > 100 µM (inactive) | GI50 (T47D): > 100 µM (inactive) | GI50 (TK-10): > 100 µM (inactive) | GI50 (U-251): > 100 µM (inactive) | GI50 (UACC-257): > 100 µM (inactive) | GI50 (UACC-62): > 100 µM (inactive)

CC1=C(C(=O)NNC(=O)c2ccccc2)CC(C(=O)NNC(=O)c2ccccc2)=C(C)N1
GI50 (786-0): > 100 µM (inactive) | GI50 (A498): > 100 µM (inactive) | GI50 (A549): > 100 µM (inactive) | GI50 (ACHN): > 100 µM (inactive) | GI50 (BT-549): > 100 µM (inactive) | GI50 (CAKI-1): > 100 µM (inactive) | GI50 (CCRF-CEM): > 100 µM (inactive) | GI50 (COLO 205): > 100 µM (inactive) | GI50 (DU-145): > 100 µM (inactive) | GI50 (EKVX): > 100 µM (inactive) | GI50 (HCC 2998): > 100 µM (inactive) | GI50 (HCT-116): > 100 µM (inactive) | GI50 (HCT-15): > 100 µM | GI50 (HL-60): > 100 µM (inactive) | GI50 (HOP-62): > 100 µM (inactive) | GI50 (HOP-92): > 100 µM (inactive) | GI50 (HT-29): > 100 µM (inactive) | GI50 (Hs-578T): > 100 µM (inactive) | GI50 (IGROV-1): > 100 µM (inactive) | GI50 (K562): > 100 µM (inactive) | GI50 (KM12): > 100 µM (inactive) | GI50 (LOX IMVI): > 100 µM (inactive) | GI50 (M14): > 100 µM (inactive) | GI50 (MCF7): > 100 µM (inactive) | GI50 (MDA-MB-231): > 100 µM (inactive) | GI50 (MDA-MB-435): > 100 µM (inactive) | GI50 (MDA-N): > 100 µM (inactive) | GI50 (MOLT-4): > 100 µM (inactive) | GI50 (NCI-H226): > 100 µM (inactive) | GI50 (NCI-H23): > 100 µM (inactive) | GI50 (NCI-H460): 92.9 µM (inactive) | GI50 (NCI-H522): > 100 µM (inactive) | GI50 (NCI/ADR-RES): > 100 µM (inactive) | GI50 (OVCAR-3): > 100 µM (inactive) | GI50 (OVCAR-4): > 100 µM (inactive) | GI50 (OVCAR-5): > 100 µM (inactive) | GI50 (OVCAR-8): > 100 µM (inactive) | GI50 (PC-3): > 100 µM (inactive) | GI50 (RPMI-8226): > 100 µM (inactive) | GI50 (RXF 393): > 100 µM (inactive) | GI50 (SF-268): > 100 µM (inactive) | GI50 (SF-295): > 100 µM (inactive) | GI50 (SF-539): > 100 µM (inactive) | GI50 (SK-MEL-28): > 100 µM (inactive) | GI50 (SK-MEL-2): > 100 µM (inactive) | GI50 (SK-MEL-5): > 100 µM (inactive) | GI50 (SK-OV-3): > 100 µM (inactive) | GI50 (SN12C): > 100 µM (inactive) | GI50 (SNB-19): > 100 µM (inactive) | GI50 (SW-620): > 100 µM (inactive) | GI50 (T47D): > 100 µM (inactive) | GI50 (TK-10): > 100 µM (inactive) | GI50 (U-251): > 100 µM (inactive) | GI50 (UACC-257): > 100 µM (inactive) | GI50 (UACC-62): > 100 µM (inactive) | GI50 (UO-31): > 100 µM (inactive)
